Measured values reported in patent US20260152480A1, “POLYCYCLIC COMPOUND AND USE THEREOF” (TYK MEDICINES , INC., priority 2022, published 2026).

Key:
[1] = tested on: YAP-TEAD; assay: Nano luciferase method to detect YAP-TEAD inhibitor activity (293T cells transfected with pGL3B-8×GTiiC-nLuc-CMV-fLuc); format: cell-based; conditions: Homo sapiens, HEK-293T; transfected 293T cells, 48 hours incubation; read-out: Nano Luciferas detection (IC50)
From the text: Experimental Example 2 Nano Luciferase Method to Detect YAP-TEAD Inhibitor Activity
(1) Experimental materials and equipment: 293T cells were purchased from Nanjing Cobioer Biosciences CO., LTD. DMEM medium (high sugar, phenol red free, Bio-Channel), DMSO (dimethyl sulfoxide), Lipo6000™ transfection reagent (Beyotime), pGL3B-8×GTiiC-nLuc-CMV-fLuc plasmid, 0.25% EDTA Tripsin (trypsin solution), 1×PBS (phosphate buffer, PH7.2), 96-well white cell culture plate (PerkinElmer), Fetal Bovine Serum (FBS), 10,000 U/mL penicillin-G/streptomycin, High-speed cryo-centrifuge (EPPENDORF 5810R), 37° C. CO^2 incubator, Vi-Cell® cell counter, Envision microplate reader (PerkinElmer).
Resuscitated 293T cells were inoculated into 10 cm petri dishes and placed in a 5% CO^2 incubator at a constant temperature of 37° C. To ensure transfection efficiency, cells in the logarithmic phase (cell density of about 50%-70%) should be used.
One day before transfection, cells in logarithmic phase were digested with Trypsin-EDTA, the reaction was terminated by adding medium, and the cell suspension was made by blowing and mixing with a pipette.
The cell concentration was determined using Vi-cell and diluted to a suspension of 5*10^5 cells per milliliter. Once the cell suspension was prepared, it was gently mixed and 10 ml of liquid was added to a 10 cm petri dish. […] The cells were incubated in a 5% CO^2 incubator at 37° C. for 1 day.
Take two clean and sterile centrifuge tubes, added 750 μL of opti-MEM Medium without antibiotics and serum respectively, then added […] of plasmid (pGL3B-8×GTiiC-nLuc-CMV-fLuc) to one of the tubes and gently blown with a pipette for mixing; the other tube was added with Lipo6000 transfection reagent and gently blown with a pipette for mixing. After standing at room temperature for 5 minutes, the culture medium containing DNA was gently added to the culture medium containing Lipo6000 transfection reagent, mixed by gently inverting the centrifuge tube, and stood at room temperature for 5 minutes.
The above mixture was added evenly dropwise to a 10-cm petri dish and replaced with fresh complete medium after 6 h of incubation.
After 1 day of transfection, Trypsin EDTA was used to digest the cells, medium was added to terminate the reaction, and a cell suspension was made by blowing and mixing with a pipette.
Cell concentration was determined using Vi-cell, and diluted to a suspension of 20,000 cells per milliliter.
After the cell suspension was prepared, it was gently mixed and 100 μL was added to each well in a 96-well plate so that the density of cells to be measured was 2000 per well.
The inoculated cell culture plates were incubated in an incubator, and the compounds in concentration gradients were added after about 24 hours.
The 10 mM compound reservoir solution was diluted to 50 μM with culture medium, and 50 μM compound solution was added sequentially to the third column of the deep-well plate, and 216 μL of culture medium containing 0.5% DMSO to the fourth to eleventh columns.
Gradient dilution: 100 μL of solution was pipetted from the third column and added to the fourth column, after mixing; another 100 μL of solution was pipetted from the fourth column and added to the fifth column, and the operation was repeated until the eleventh column.
Using a multichannel pipette, 25 μL of compound solution was pipetted from the deep-well plate and added to the 96-well culture plate, and each compound was repeated four times on the 96-well plate. A concentration gradient with a maximum concentration of 10,000 nM, 1:3.16, was eventually formed on the 96-well plate.
The 96-well plate was incubated in a 5% CO^2 incubator at a constant temperature of 37° C. for 48 hours, then removed and equilibrated at room temperature for 10 minutes.
100 μL of detection reagent was added to each well and placed on a horizontal shaker at low speed for 10 minutes to fully lyse the cells. […]

[2] = tested on: Human pleural mesothelioma cells NCI-H226; assay: Proliferation inhibition assay of human pleural mesothelioma cells NCI-H226 (CCK8); format: cell-based; conditions: 72 h, 3 days incubation
From the text: Experimental Example 1 Cell Anti-Proliferation Test
Proliferation Inhibition Assay of Human Pleural Mesothelioma Cells NCI-H226 by YAP-TEAD Inhibitor Compounds
Experimental materials and equipment: Human pleural mesothelioma cells NCI-H226 were purchased from Nanjing Cobioer Biosciences CO., LTD. RPMI-1640 medium (Bio-Channel), DMSO (dimethyl sulfoxide), CCK8 (WST-8) cell analysis kit (Beyotime), 0.25% EDTA-Tripsin (trypsin solution), 1×PBS (phosphate buffer, PH7.2), 96-well plate (Corning), fetal bovine serum (FBS), 10,000 U/mL penicillin-G/streptomycin, high-speed cryo-centrifuge (EPPENDORF 5810R), enzyme-linked immunoassay (Tecan Spark).
• A) Tumor cells were cultured in RPMI-1640 (containing 10% FBS and 100 U/mL penicillin-G/streptomycin) at 37° C., 5% CO^2 and saturated humidity until 80-90% density. • B) Removed the culture medium from 10 cm Petri dishes; • C) Rinsed the cells once with 10 ml 1×PBS; • D) Added 4 ml 0.25% EDTA-Tripsin into 37° C., 5% CO^2 incubator for trypsin digestion for 5 minutes, transferred to 15 ml centrifuge tube, centrifuged at 200 g for 5 minutes, discarded the supernatant to get cell precipitate; • E) Resuspend with 4 ml DMEM medium, count and adjust to 10,000 cells/ml. • F) Added cell suspension to 96-well plate with 100 μL per well volume and incubate overnight at 37° C., 5% CO^2 incubator.
• A) Preparation of gradient dilution solution of tested compounds: the test compounds were configured into 1 mM reservoir solution. Then 1.5 μl of the reservoir solution was dissolved in 1.5 ml of DMSO-free culture solution, and then a 3-fold serial gradient dilution was performed with 0.1% DMSO culture solution for a total of 9 concentrations, and the concentrations of the compounds after dilution were as follows: • 333.33 nM, 111.11 nM, 37.03 nM, 12.35 nM, 4.15 nM, 1.37 nM, 0.46 nM, 0.15 nM • B) After thorough mixing, 100 μL of culture compound solution was taken separately to replace the culture solution in the cell culture plate, with 4 replicate wells for each concentration; • C) The cells were transferred to the incubator and incubated for 3 days.
• A) Removed the cell culture plate and added 10 μl of CCK-8 (WST-8) solution per well in the biosafety cabinet. • B) Placed the cell culture plate back into the incubator and continued incubation for 3 hours. • C) Determined the absorbance value by selecting 450 nm on a TECAN enzyme-linked immunoassay detector.
The cell viability (% Cell Viability) was calculated using the following formula.
[formula] • A (dosing): absorbance of wells with cells, CCK8 solution and drug solution • A (blank): absorbance of wells with medium and CCK8 solution but no cells • A (0 dosing): absorbance of wells with cells, CCK8 solution and no drug solution • Cell viability: Cell proliferation viability or cytotoxicity viability IC50 values were obtained by curve fitting with GraphPad Prism 8 software.

SMILES | IC50 [1] [nM] | IC50 [2] [nM]
C=CC(=O)N1CC=C(c2cccnc2Nc2ccc(C(F)(F)F)cc2)CC1 [Compound T2] | ≤ 100 | ≤ 100
C=CC(=O)N1CCC(c2cccnc2Nc2ccc(C(F)(F)F)cc2)C1 (centres unmarked) [Compound T3] | 100 to 1000 | 100 to 1000
C=CC(=O)N1CC=C(c2cccnc2Nc2ccc(C(F)(F)F)cc2)C1 [Compound T4] | ≤ 100 | ≤ 100
C=CC(=O)N1CC(c2cccnc2Nc2ccc(C(F)(F)F)cc2)C1 [Compound T5] | 100 to 1000 | 100 to 1000
C=CC(=O)N1CCC(c2cccnc2Nc2ccc(S(F)(F)(F)(F)F)cc2)CC1 [Compound T6] | ≤ 100 | ≤ 100
C=CC(=O)N1CC=C(c2cccnc2Nc2ccc(S(F)(F)(F)(F)F)cc2)CC1 [Compound T7] | ≤ 100 | ≤ 100
C=CC(=O)N1CCC(c2cccnc2Nc2ccc(S(F)(F)(F)(F)F)cc2)C1 (centres unmarked) [Compound T8] | ≤ 100 | ≤ 100
C=CC(=O)N1CC=C(c2cccnc2Nc2ccc(S(F)(F)(F)(F)F)cc2)C1 [Compound T9] | ≤ 100 | ≤ 100
C=CC(=O)N1CC(c2cccnc2Nc2ccc(S(F)(F)(F)(F)F)cc2)C1 [Compound T10] | ≤ 100 | ≤ 100
C=CC(=O)N1CCC(c2cccnc2Nc2ccc(C)cc2)CC1 [Compound T11] | ≤ 100 | ≤ 100
C=CC(=O)N1CC=C(c2cccnc2Nc2ccc(C)cc2)CC1 [Compound T12] | ≤ 100 | ≤ 100
C=CC(=O)N1CCC(c2cccnc2Nc2ccc(C)cc2)C1 (centres unmarked) [Compound T13] | ≤ 100 | ≤ 100
C=CC(=O)N1CC=C(c2cccnc2Nc2ccc(C)cc2)C1 [Compound T14] | ≤ 100 | ≤ 100
C=CC(=O)N1CC(c2cccnc2Nc2ccc(C)cc2)C1 [Compound T15] | ≤ 100 | ≤ 100
C=CC(=O)N1CC=C(c2nccnc2Nc2ccc(C(F)(F)F)cc2)CC1 [Compound T17] | ≤ 100 | ≤ 100
C=CC(=O)N1CCC(c2nccnc2Nc2ccc(C(F)(F)F)cc2)C1 (centres unmarked) [Compound T18] | ≤ 100 | ≤ 100
C=CC(=O)N1CC=C(c2nccnc2Nc2ccc(C(F)(F)F)cc2)C1 [Compound T19] | ≤ 100 | ≤ 100
C=CC(=O)N1CC(c2nccnc2Nc2ccc(C(F)(F)F)cc2)C1 [Compound T20] | ≤ 100 | ≤ 100
C=CC(=O)N1CCC(c2ccc(C)nc2Nc2ccc(C(F)(F)F)cc2)CC1 [Compound T21] | ≤ 100 | ≤ 100
C=CC(=O)N1CCC(c2c(C)ccnc2Nc2ccc(C(F)(F)F)cc2)CC1 [Compound T23] | ≤ 100 | ≤ 100

SMILES | IC50 [1] [nM] | IC50 [2] [nM]
C=CC(=O)N1CCC(c2ccc(F)nc2Nc2ccc(C(F)(F)F)cc2)CC1 [Compound T24] | ≤ 100 | ≤ 100
C=CC(=O)N1CCC(c2cc(F)cnc2Nc2ccc(C(F)(F)F)cc2)CC1 [Compound T25] | ≤ 100 | ≤ 100
C=CC(=O)N1CCC(c2c(F)ccnc2Nc2ccc(C(F)(F)F)cc2)CC1 [Compound T26] | ≤ 100 | ≤ 100
C=CC(=O)N1CCC(c2cc(Cl)cnc2Nc2ccc(C(F)(F)F)cc2)CC1 [Compound T28] | ≤ 100 | ≤ 100
C=CC(=O)N1CCC(c2c(Cl)ccnc2Nc2ccc(C(F)(F)F)cc2)CC1 [Compound T29] | ≤ 100 | ≤ 100
C=CC(=O)N1CCC(c2ccc(OC)nc2Nc2ccc(C(F)(F)F)cc2)CC1 [Compound T33] | ≤ 100 | 100 to 1000
C=CC(=O)N1CCC(c2cc(OC)cnc2Nc2ccc(C(F)(F)F)cc2)CC1 [Compound T34] | 100 to 1000 | 100 to 1000
C=CC(=O)N1CCC(c2c(OC)ccnc2Nc2ccc(C(F)(F)F)cc2)CC1 [Compound T35] | 100 to 1000 | 100 to 1000
C=CC(=O)N1CCN(c2cccnc2Nc2ccc(C(F)(F)F)cc2)CC1 [Compound T36] | 100 to 1000 | 100 to 1000
C=CC(=O)N1CCC(c2cc(F)cnc2Oc2ccc(C(F)(F)F)cc2)CC1 [Compound T38] | 100 to 1000 | 100 to 1000
C=CC(=O)N1CCC(c2cc(C(F)(F)F)cnc2Oc2ccc(C(F)(F)F)cc2)CC1 [Compound T39] | 100 to 1000 | 100 to 1000
C=CC(=O)N1CCC(c2ccnnc2Nc2ccc(C(F)(F)F)cc2)CC1 [Compound T42] | 100 to 1000 | 100 to 1000
C=CC(=O)N1CCC(c2cncnc2Nc2ccc(C(F)(F)F)cc2)CC1 [Compound T43] | 100 to 1000 | 100 to 1000
C=CC(=O)N1CCC(c2cc(C)cnc2Oc2ccc(C(F)(F)F)cc2)CC1 [Compound T44] | 100 to 1000 | 100 to 1000
C=CC(=O)N1CCC(c2ccc(C(F)(F)F)nc2Nc2ccc(C(F)(F)F)cc2)CC1 [Compound T45] | 100 to 1000 | 1000 to 5000
C=CC(=O)N1CCC(c2cc(C(F)(F)F)cnc2Nc2ccc(C(F)(F)F)cc2)CC1 [Compound T47] | 100 to 1000 | 100 to 1000
C=C(C)C(=O)N1CCC(c2cccnc2Nc2ccc(C(F)(F)F)cc2)CC1 [Compound T48] | 1000 to 5000 | 1000 to 5000
C#CC(=O)N1CCC(c2cccnc2Nc2ccc(C(F)(F)F)cc2)CC1 [Compound T49] | ≤ 100 | 1000 to 5000
CC#CC(=O)N1CCC(c2cccnc2Nc2ccc(C(F)(F)F)cc2)CC1 [Compound T50] | 1000 to 5000 | 1000 to 5000
C=C(F)C(=O)N1CCC(c2cccnc2Nc2ccc(C(F)(F)F)cc2)CC1 [Compound T51] | 100 to 1000 | 100 to 1000
